Several values for one entry are separate records, joined by “and”; a condition that tells them apart may be missing. Equal values may be shown once. Inconclusive results and toxic doses are left out. Rule as the data show it: active = T/C of 150% or more; inactive = T/C below 125%.
Tested on: L1210 leukemia ip in BDF1 mice, survival T/C
Assay: NCI In Vivo Anticancer Drug Screen. Data for tumor model L1210 Leukemia (intraperitoneal) in B6D2F1 (BDF1) mice
Details: endpoint: mean survival time, higher = longer survival
Method in brief: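 Value reflects the ratio of survival in compound-treated mice to survival in vehicle-treated controls, with both groups carrying the same transplanted tumor.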

[1] = dose: 100.0 mg/kg/injection, schedule: Q04DX003 (ip), vehicle: Klucel (hydroxypropylcellulose) (HPC)
[2] = dose: 200.0 mg/kg/injection, schedule: Q04DX003 (ip), vehicle: Klucel (hydroxypropylcellulose) (HPC)
[3] = dose: 100.0 mg/kg/injection, schedule: Q01DX009 (ip), vehicle: Klucel (hydroxypropylcellulose) (HPC)
[4] = dose: 200.0 mg/kg/injection, schedule: Q01DX009 (ip), vehicle: Klucel (hydroxypropylcellulose) (HPC)
[5] = dose: 400.0 mg/kg/injection, schedule: Q01DX009 (ip), vehicle: Klucel (hydroxypropylcellulose) (HPC)
[6] = dose: 400.0 mg/kg/injection, schedule: Q04DX003 (ip), vehicle: Klucel (hydroxypropylcellulose) (HPC)
[7] = dose: 100.0 mg/kg/injection, schedule: Q04DX002 (ip), vehicle: Klucel (hydroxypropylcellulose) (HPC)
[8] = dose: 200.0 mg/kg/injection, schedule: Q04DX002 (ip), vehicle: Klucel (hydroxypropylcellulose) (HPC)
[9] = dose: 400.0 mg/kg/injection, schedule: Q04DX002 (ip), vehicle: Klucel (hydroxypropylcellulose) (HPC)
[10] = dose: 100.0 mg/kg/injection, schedule: Q01DX009 (ip), vehicle: saline with Tween-80
[11] = dose: 200.0 mg/kg/injection, schedule: Q01DX009 (ip), vehicle: saline with Tween-80
[12] = dose: 400.0 mg/kg/injection, schedule: Q01DX009 (ip), vehicle: saline with Tween-80
[13] = dose: 50.0 mg/kg/injection, schedule: Q01DX009 (ip), vehicle: Klucel (hydroxypropylcellulose) (HPC)
[14] = dose: 200.0 mg/kg/injection, schedule: Q04DX003 (ip), vehicle: saline with Tween-80

Measured: T/C

CNC/C=C/CNC
inactive: dose: 25.0 mg/kg/injection, schedule: Q01DX009 (ip), vehicle: saline 97 % of control | dose: 25.0 mg/kg/injection, schedule: Q04DX003 (ip), vehicle: saline 102 % of control | dose: 50.0 mg/kg/injection, schedule: Q01DX009 (ip), vehicle: saline 90 % of control | dose: 50.0 mg/kg/injection, schedule: Q04DX003 (ip), vehicle: saline 93 % of control | dose: 100.0 mg/kg/injection, schedule: Q01DX009 (ip), vehicle: saline 98 % of control | dose: 100.0 mg/kg/injection, schedule: Q04DX003 (ip), vehicle: saline 98 % of control and 99 % of control

NC(=S)N/N=C/c1ccc(F)cc1
inactive: dose: 60.0 mg/kg/injection, schedule: Q01DX Z (oral), vehicle: methylcellulose (MC) 90 % of control | dose: 120.0 mg/kg/injection, schedule: Q01DX Z (oral), vehicle: methylcellulose (MC) 87 % of control

O=C(O)C(c1ccccc1)N1C(=O)c2ccccc2C1=O (stereo unspecified)
inactive: dose: 50.0 mg/kg/injection, schedule: Q04DX003 (ip), vehicle: Klucel (hydroxypropylcellulose) (HPC) 104 % of control | [1] 109 % of control | [2] 104 % of control

O=C(Nc1ccc(C(c2ccccc2)(c2ccccc2)c2ccccc2)cc1)C(Cl)Cl
inactive: [3] 91 % of control | [1] 96 % of control | [4] 97 % of control | [2] 95 % of control | [5] 97 % of control | [6] 94 % of control

NC(N)=NC(N)=Nc1ccccc1-c1ccccc1
inactive: [3] 111 % of control | [4] 103 % of control | [5] 86 % of control

CN(C)N(P(N)(Cl)(c1ccccc1)c1ccccc1)P(N)(Cl)(c1ccccc1)c1ccccc1
inactive: dose: 5.0 mg/kg/injection, schedule: Q01DX001 (ip), vehicle: steriod suspending solution 100 % of control | dose: 10.0 mg/kg/injection, schedule: Q01DX001 (ip), vehicle: steriod suspending solution 105 % of control | dose: 20.0 mg/kg/injection, schedule: Q01DX001 (ip), vehicle: steriod suspending solution 97 % of control | dose: 40.0 mg/kg/injection, schedule: Q01DX001 (ip), vehicle: steriod suspending solution 103 % of control | dose: 80.0 mg/kg/injection, schedule: Q01DX001 (ip), vehicle: steriod suspending solution 94 % of control

Cc1c(Cl)cccc1NC(=O)c1cccc(C(=O)Nc2cccc(Cl)c2C)c1
inactive: [3] 112 % of control | [1] 91 % of control | [4] 93 % of control | [2] 90 % of control | [5] 88 % of control | [6] 98 % of control

CC1(c2ccc3ccccc3c2)OC(=O)c2ccccc21 (stereo unspecified)
inactive: dose: 25.0 mg/kg/injection, schedule: Q01DX009 (ip), vehicle: saline with Tween-80 106 % of control | dose: 50.0 mg/kg/injection, schedule: Q01DX009 (ip), vehicle: saline with Tween-80 91 % of control

Cc1ccc(S/C(=N\O)C(C)C)cc1
inactive: [7] 108 % of control | [8] 92 % of control | [9] 110 % of control

O=C1c2cccc3cccc(c23)C(=O)N1CCCN1C(=O)c2cccc3cccc(c23)C1=O
inactive: [7] 88 % of control | [8] 98 % of control

Cc1nc(C)c(-c2ccc([N+](=O)[O-])cc2)o1
inactive: dose: 100.0 mg/kg/injection, schedule: Q01DX001 (ip), vehicle: saline with Tween-80 105 % of control | dose: 200.0 mg/kg/injection, schedule: Q01DX001 (ip), vehicle: saline with Tween-80 105 % of control | dose: 400.0 mg/kg/injection, schedule: Q01DX001 (ip), vehicle: saline with Tween-80 102 % of control

O=C(O)c1cccc(C2CCCCC2)c1
inactive: dose: 75.0 mg/kg/injection, schedule: Q01DX001 (ip), vehicle: other 106 % of control | dose: 150.0 mg/kg/injection, schedule: Q01DX001 (ip), vehicle: other 97 % of control | dose: 300.0 mg/kg/injection, schedule: Q01DX001 (ip), vehicle: other 101 % of control

Cc1ccc(SCc2c(COc3ccc(Cl)cc3)sc3ccc(Cl)cc23)cc1
inactive: [10] 102 % of control | [11] 119 % of control | [12] 97 % of control

CC1CC(C)(C)[N+](C)=C(CC(O)(c2ccccc2)c2ccccc2)O1 (stereo unspecified)
inactive: dose: 6.25 mg/kg/injection, schedule: Q04DX003 (ip), vehicle: saline sonified 95 % of control | dose: 12.5 mg/kg/injection, schedule: Q04DX003 (ip), vehicle: saline sonified 104 % of control | dose: 25.0 mg/kg/injection, schedule: Q04DX003 (ip), vehicle: saline sonified 92 % of control

CCOC(=O)NC(CCl)NC(=O)OCC
inactive: dose: 100.0 mg/kg/injection, schedule: Q01DX001 (ip), vehicle: saline 95 % of control | dose: 200.0 mg/kg/injection, schedule: Q01DX001 (ip), vehicle: saline 101 % of control | dose: 400.0 mg/kg/injection, schedule: Q01DX001 (ip), vehicle: saline 103 % of control

CCc1ccc(NC(=O)NCCCl)cc1
inactive: [13] 89 % of control | dose: 100.0 mg/kg/injection, schedule: Q01DX001 (ip), vehicle: carboxymethylcellulose (CMC) 87 % of control | [3] 89 % of control | [7] 105 % of control | dose: 200.0 mg/kg/injection, schedule: Q01DX001 (ip), vehicle: carboxymethylcellulose (CMC) 106 % of control | [4] 92 % of control | [8] 113 % of control | dose: 400.0 mg/kg/injection, schedule: Q01DX001 (ip), vehicle: carboxymethylcellulose (CMC) 106 % of control

COc1ccc(Sc2cccc3c2C(C)(O)c2c(Sc4ccc(OC)cc4)cccc2C3(C)O)cc1 (stereo unspecified)
inactive: [10] 100 % of control | dose: 100.0 mg/kg/injection, schedule: Q04DX003 (ip), vehicle: saline with Tween-80 97 % of control | [11] 92 % of control | [14] 95 % of control | [12] 92 % of control | dose: 400.0 mg/kg/injection, schedule: Q04DX003 (ip), vehicle: saline with Tween-80 93 % of control

CN1c2ccc(Cl)cc2C2(C(=O)NN)C(C(=O)NN)N(C3CCCCC3)C(=O)C12N (stereo unspecified)
inactive: [10] 97 % of control | [11] 107 % of control

CC(=O)Oc1ccc2c(c1)C(=O)CCCCCC(=O)O2
inactive: dose: 50.0 mg/kg/injection, schedule: Q04DX003 (ip), vehicle: saline with Tween-80 95 % of control | [14] 117 % of control

O=C(Nc1cccc(F)c1)Nc1cc(Cl)ccc1Cl
inactive: [3] 96 % of control and 86 % of control | [4] 102 % of control | [5] 95 % of control and 92 % of control

N#Cc1cccn1-c1cccc2c(-n3cccc3C#N)cccc12
inactive: dose: 25.0 mg/kg/injection, schedule: Q04DX002 (ip), vehicle: Klucel (hydroxypropylcellulose) (HPC) 101 % of control | dose: 50.0 mg/kg/injection, schedule: Q04DX002 (ip), vehicle: Klucel (hydroxypropylcellulose) (HPC) 97 % of control | [7] 101 % of control

CCNP(=O)(CCl)NC12CC3CC(CC(C3)C1)C2 (stereo unspecified)
inactive: [13] 91 % of control | [3] 93 % of control | [4] 93 % of control

Cc1ccccc1SCC#CCSc1ccccc1C
inactive: dose: 100.0 mg/kg/injection, schedule: Q01DX001 (ip), vehicle: Klucel (hydroxypropylcellulose) (HPC) 93 % of control | dose: 200.0 mg/kg/injection, schedule: Q01DX001 (ip), vehicle: Klucel (hydroxypropylcellulose) (HPC) 95 % of control | dose: 400.0 mg/kg/injection, schedule: Q01DX001 (ip), vehicle: Klucel (hydroxypropylcellulose) (HPC) 106 % of control

O=c1c2c(=O)c3ccccc3c(=O)c=2c(=O)c2ccccc12
inactive: [7] 93 % of control | [8] 89 % of control | [9] 89 % of control

Reference: PubChem BioAssay AID248 (DTP/NCI, 2004)
